Results from patent US20220280450A1, “PREVENTION AND TREATMENT OF CORONAVIRUS AND RELATED RESPIRATORY INFECTIONS” (PhilERA New Zealand Ltd., priority 2021, published 2022).
“And” between values parts separate entries of the source, which are not always exact repeats. Equal entries are not always repeated.

Columns and labels:
[1] = human, in vivo
[2] = clinical; conditions: human, in vivo
[3] = clinical; conditions: human, in vivo; remark: listed apart in the source
[4] = tested on: Pgp; assay: Permeability in Caco-2 barrier model; conditions: human
Experimental: (§1) Digoxin was used as marker to check for Pgp activity in the cultures. […] Samples were recovered from receptor compartments after 0, 15, 30, 45, 60, and 120 minutes, and further analyzed by liquid scintillation counting. Samples were also recovered a time 0 and 120 minutes from the donor compartments for mass balance evaluation. Each condition was performed in 3 replicated transwell filters in the presence of the Caco-2 barrier.

[5] = tested on: P-gp; assay: Permeability in Caco-2 barrier model; conditions: human
Experimental: as §1

[6] = molecular target: Pgp (Homo sapiens, UniProt P08183); conditions: PX811019 0.2 mM applied basolaterally
[7] = tested on: urinary copper excretion; conditions: in vivo, po
[8] = population mean (% CV in table)

Sequence of Pgp (Homo sapiens, UniProt P08183) (P08183 whole entry): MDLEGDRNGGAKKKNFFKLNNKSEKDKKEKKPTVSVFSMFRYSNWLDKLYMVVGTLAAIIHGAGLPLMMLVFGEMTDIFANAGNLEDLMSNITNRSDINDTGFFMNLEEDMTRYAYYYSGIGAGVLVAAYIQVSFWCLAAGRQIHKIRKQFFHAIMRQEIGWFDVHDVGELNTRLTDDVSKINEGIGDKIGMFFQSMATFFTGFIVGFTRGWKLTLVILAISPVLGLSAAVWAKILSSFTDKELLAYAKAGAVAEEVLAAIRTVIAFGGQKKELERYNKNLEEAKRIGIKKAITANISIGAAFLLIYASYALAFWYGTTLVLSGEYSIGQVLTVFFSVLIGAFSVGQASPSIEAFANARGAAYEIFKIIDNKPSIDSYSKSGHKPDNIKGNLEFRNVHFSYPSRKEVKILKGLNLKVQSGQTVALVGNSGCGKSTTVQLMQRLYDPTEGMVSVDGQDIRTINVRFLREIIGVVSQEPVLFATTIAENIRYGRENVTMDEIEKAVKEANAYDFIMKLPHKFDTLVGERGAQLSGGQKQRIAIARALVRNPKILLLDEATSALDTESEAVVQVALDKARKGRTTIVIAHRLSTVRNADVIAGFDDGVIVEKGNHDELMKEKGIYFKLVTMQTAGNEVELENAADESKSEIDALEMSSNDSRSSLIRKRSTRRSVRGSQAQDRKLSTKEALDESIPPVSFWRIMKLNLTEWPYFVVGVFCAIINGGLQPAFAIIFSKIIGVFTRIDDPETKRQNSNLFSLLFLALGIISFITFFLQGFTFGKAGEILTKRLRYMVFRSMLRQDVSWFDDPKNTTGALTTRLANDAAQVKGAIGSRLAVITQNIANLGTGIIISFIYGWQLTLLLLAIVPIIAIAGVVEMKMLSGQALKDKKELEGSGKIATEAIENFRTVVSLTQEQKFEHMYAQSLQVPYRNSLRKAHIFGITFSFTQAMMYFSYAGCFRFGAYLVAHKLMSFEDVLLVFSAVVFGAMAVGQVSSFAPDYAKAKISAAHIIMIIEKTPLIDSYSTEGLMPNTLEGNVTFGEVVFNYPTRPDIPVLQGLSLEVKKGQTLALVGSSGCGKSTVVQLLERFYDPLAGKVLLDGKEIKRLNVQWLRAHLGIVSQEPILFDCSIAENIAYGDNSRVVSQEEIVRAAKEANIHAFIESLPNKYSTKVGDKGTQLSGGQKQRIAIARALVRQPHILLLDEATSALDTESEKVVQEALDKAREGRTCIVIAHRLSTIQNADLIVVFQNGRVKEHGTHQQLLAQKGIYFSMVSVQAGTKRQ

Structure (SMILES): CC(=O)NCCNCCNCCNC(C)=O [DAT, N1,N10-diacetyltriethylenetetramine]
- Cmax of DAT relative to MAT [1]: 3-4 fold lower
- Inter-individual variability of CLD/F/frM/frD (estimate (% CV in table)): 55.9% and 55.9 (18.1) [1.5] %
- Inter-individual variability of VP,D/F/frM/frD (estimate (% CV in table)): 86.8% and 86.8 (29.4) [2.7] %
- Apparent volume for DAT, VP,D/F/frM/frD [8]: 197 L and 197 (17.7) L
- CL/F [2]: 5100 mL/min
- Tmax [3]: 5 to 6 h

Structure (SMILES): C[C@H]1O[C@@H](O[C@H]2[C@@H](O)C[C@H](O[C@H]3[C@@H](O)C[C@H](O[C@H]4CC[C@@]5(C)[C@H](CC[C@@H]6[C@@H]5C[C@@H](O)[C@]5(C)[C@@H](C7=CC(=O)OC7)CC[C@]65O)C4)O[C@@H]3C)O[C@@H]2C)C[C@H](O)[C@@H]1O [Digoxin]
- Papp B→A [4]: 6.08 ×10⁻⁶ cm/s
- efflux ratio [5]: 8.06
- Papp B-A of Digoxin in presence of PX811019 [6]: 5.68±3.03×10^−6 cm/s

Structure (SMILES): CC(=O)NCCNCCNCCN [MAT, N1-acetyltriethylenetetramine]
- Inter-individual variability of CLM/F/frM (estimate (% CV in table)): 41.5% and 41.5 (15.1) [2.9] %
- Inter-individual variability of VP,M/F/frM (estimate (% CV in table)): 55.1% and 55.1 (17.4) [2.7] %
- Apparent volume for MAT, VP,M/F/frM [8]: 426 L and 426 (9.8) L
- Mean transit time for MAT formation [8]: 0.381 h and 0.381 (34.2) h
- CL/F [2]: 1270 mL/min

Structure (SMILES): NCCNCCNCCN.O=C(O)CCC(=O)O.O=C(O)CCC(=O)O [PX811019, triethylenetetramine disuccinate]
- Level of cupriuresis versus dose [7]: approximately the same at 435 and 1305 mg PX811019 and increased at the highest dose of 2175 mg
- Tmax [3]: 1.25 to 2 h

Structure (SMILES): NCCNCCNCCN [TETA, triethylenetetramine]
- Increase of model predicted VT,T/F for every 100 mg difference from the 750 mg dose (human, in vivo): 6.37%
- Inter-individual variability of SL · ER0 (in vivo): 58.1% and 58.1 (25.1) [7.8] %
- Slope (SL) of copper excretion versus TETA concentration (in vivo): 41.8 (mg/L)^−1
- CL/F [2]: 2350 mL/min
